Reference: US10774071B2, “PD-1/PD-L1 inhibitors” (Gilead Sciences, Inc., priority 2018, dated 2020)
Like-named read-outs stand apart in the source and are kept apart here.

How the values were obtained:
PD-1/PD-L1 = PD-1/PD-L1 (Homo sapiens (Human), UniProt Q9NZQ7); test: PD-1/PD-L1 biochemical protein-protein interaction assay (ALPHA); type: binding; conditions: read-out: IC50 PD-L1-PD1
Protocol: Compounds were tested in biochemical protein-protein interaction assays to determine if they can specifically block the interaction between the extracellular domains of PD-1/PD-L1 or CTLA/CD80. Binding of the protein pairs is measured using a bead based Amplified Luminescent Proximity Homogeneous Assay (ALPHA) platform. […] Final protein concentration in the assays were 0.3 nM (His tagged PD-L1), 2.5 nM (biotinylated Fc-PD-1), 1 nM (His tagged CTLA4) and 1 nM (biotinylated CD80).

PD-L1 = PD-L1 (Homo sapiens (Human), UniProt Q9NZQ7); test: PD-L1/PD-L1 dimerization biochemical protein-protein interaction assay (ALPHA); type: binding; conditions: read-out: AC50 PDL1 Dimer 1 nM
[1] = 0.3 nM His tagged PD-L1, 2.5 nM biotinylated Fc-PD-1, Table 3B
[2] = 0.5 nM His tagged PD-L1 and 0.5 nM FLAG tagged PD-L1, Table 4B
[3] = 0.3 nM His tagged PD-L1, 2.5 nM biotinylated Fc-PD-1, readings of 0.064 nM are equal to or less than 0.064 nM
[4] = 0.5 nM His tagged PD-L1 and 0.5 nM FLAG tagged PD-L1, Table 4A

Sequence of PD-L1 (Q9NZQ7 19-238): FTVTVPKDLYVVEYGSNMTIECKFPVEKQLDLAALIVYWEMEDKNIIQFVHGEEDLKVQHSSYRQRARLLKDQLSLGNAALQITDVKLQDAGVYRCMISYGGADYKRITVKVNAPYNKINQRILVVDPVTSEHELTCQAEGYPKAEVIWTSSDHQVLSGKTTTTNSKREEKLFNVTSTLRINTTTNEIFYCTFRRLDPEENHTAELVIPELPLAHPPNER
Sequence of PD-L1 (Q9NZQ7 19-238): as above
Sequence of PD-1/PD-L1 (Q9NZQ7 19-238): as above

Row | Structure (SMILES) | AC50 (PD-L1; [2]) [nM] | other results
1 | COc1nc(-c2cccc(-c3cccc4c3CC[C@@H]4Oc3nc(OC)c(CN[C@H](C)CC(=O)O)cc3C(F)(F)F)c2Cl)ccc1CN[C@H]1C[C@](C)(O)C1 [B-253] | 8.73 | IC50 (PD-1/PD-L1; [1]): 0.064 nM
2 | COc1cc(N[C@H]2CCc3c(-c4cccc(-c5ccc(CNC[C@@H]6CCC(=O)N6)c(OC)n5)c4Cl)cccc32)c(C(F)(F)F)nc1CNC1(C(=O)O)CC1 [A-37] | – | IC50 (PD-1/PD-L1; [3]): ≤ 0.064 nM; AC50 (PD-L1; [4]): 6.26 nM
3 | COc1nc(-c2cccc(-c3cccc4c3CC[C@@H]4Oc3nc(OC)c(CN4CC(C(=O)O)C4C)cc3Cl)c2Cl)ccc1CNC[C@@H]1CCC(=O)N1 (stereo partly drawn) [B-9] | 19.2 | IC50 (PD-1/PD-L1; [1]): 0.064 nM
4 | COc1nc(O[C@H]2CCc3c(-c4cccc(-c5ccc(CNC[C@@H]6CCC(=O)N6)c(OCC#N)n5)c4Cl)cccc32)c(C(F)(F)F)cc1CN1CC[C@@H](C(=O)O)C1 [B-127] | 5.46 | IC50 (PD-1/PD-L1; [1]): 0.064 nM
5 | COc1nc(-c2cccc(-c3cccc4c3CC[C@@H]4Oc3nc(OC)c(CN4CC(C(=O)NS(=O)(=O)C(F)F)C4)cc3Cl)c2Cl)ccc1CNC[C@@H]1CCC(=O)N1 [B-110] | 97.1 | –
6 | COc1nc(-c2cccc(-c3cccc4c3CC[C@@H]4Oc3nc(OC)c(CNC4(C(=O)O)CC4)cc3C)c2Cl)ccc1CNC[C@@H]1CCC(=O)N1 [B-246] | 14 | IC50 (PD-1/PD-L1; [1]): 0.064 nM
7 | COc1nc(-c2cccc(-c3cccc4c3CC[C@@H]4Oc3nc(OC)c(CN4CCCCC(C(=O)O)C4)cc3Cl)c2Cl)ccc1CNC[C@@H]1CCC(=O)N1 (stereo partly drawn) [B-176] | 52.6 | IC50 (PD-1/PD-L1; [1]): 0.064 nM
8 | CCC1C(C(=O)O)CCN1Cc1cc(C(F)(F)F)c(N[C@H]2CCc3c(-c4cccc(-c5ccc(CNC[C@@H]6CCC(=O)N6)c(OC)n5)c4Cl)cccc32)nc1OC (stereo partly drawn) [A-79] | – | IC50 (PD-1/PD-L1; [3]): ≤ 0.064 nM; AC50 (PD-L1; [4]): 21.4 nM
9 | COc1nc(-c2cccc(-c3cccc4c3CC[C@@H]4Oc3nc(OC)c(CN4C[C@H]5C[C@@]5(C(=O)O)C4)cc3C(F)(F)F)c2Cl)ccc1CNC[C@@H]1CCC(=O)N1 [B-198] | 15.3 | IC50 (PD-1/PD-L1; [1]): 0.064 nM
10 | COc1nc(-c2cccc(-c3cccc4c3CC[C@@H]4Oc3nc(OC(F)F)c(CN4CC5(C(=O)O)CCC4CC5)cc3Cl)c2Cl)ccc1CNC[C@@H]1CCC(=O)N1 [B-40] | 48.6 | –
11 | COc1nc(-c2cccc(-c3cccc4c3CC[C@@H]4Oc3nc(OC)c(CN4CCC[C@H]4C(=O)O)cc3Cl)c2Cl)ccc1CNC[C@@H]1CCC(=O)N1 [B-18] | 17.5 | –
12 | COc1nc(-c2cccc(-c3cccc4c3CC[C@@H]4Oc3nc(OC)c(CN4CC(C(=O)O)C4)cc3Cl)c2Cl)ccc1CN1CC(C)(O)C1 [B-100] | 103 | –
13 | COc1nc(-c2cccc(-c3cccc4c3CC[C@@H]4Oc3nc(OCc4cncc(C#N)c4)c(CN4CC5(C(=O)O)CCC4CC5)cc3Cl)c2Cl)ccc1CNC[C@@H]1CCC(=O)N1 [B-67] | 30.3 | –
14 | CCS(=O)(=O)NC(=O)[C@@H]1CCN(Cc2cc(Cl)c(O[C@H]3CCc4c(-c5cccc(-c6ccc(CNC[C@@H]7CCC(=O)N7)c(OC)n6)c5Cl)cccc43)nc2OC)C1 [B-112] | 170 | –
15 | COc1nc(-c2cccc(-c3cccc4c3CC[C@@H]4Oc3nc(OCc4cncc(C#N)c4)c(CN4CC[C@@H](C(=O)O)C4)cc3Cl)c2Cl)ccc1CNC[C@@H]1CCC(=O)N1 [B-66] | 38.1 | –
16 | COc1nc(-c2cccc(-c3cccc4c3CC[C@@H]4Oc3nc(OCc4cncc(F)c4)c(CN4CC5(C(=O)O)CCC4CC5)cc3Cl)c2Cl)ccc1CNC[C@@H]1CCC(=O)N1 [B-33] | 14.7 | –
17 | COc1nc(-c2cccc(-c3cccc4c3CC[C@@H]4Oc3nc(OC)c(CN4CC[C@@H](C(=O)NS(=O)(=O)C(F)F)C4)cc3Cl)c2Cl)ccc1CNC[C@@H]1CCC(=O)N1 [B-111] | 139 | –
18 | COc1nc(-c2cccc(-c3cccc4c3CC[C@@H]4Oc3nc(OCC#N)c(CN4CC5(C(=O)O)CCC4CC5)cc3Cl)c2Cl)ccc1CNC[C@@H]1CCC(=O)N1 [B-55] | 10.7 | –
19 | COc1nc(-c2cccc(-c3cccc4c3CC[C@@H]4Oc3nc(OC)c(CNC4(C(=O)O)CCC4)cc3Cl)c2Cl)ccc1CNC[C@@H]1CCC(=O)N1 [B-35] | 9.06 | –

Row | Structure (SMILES) | AC50 (PD-L1; [2]) [nM] | other results
20 | COC(=O)[C@@H]1CCN(Cc2cc(Cl)c(O[C@H]3CCc4c(-c5cccc(-c6ccc(CNC[C@@H]7CCC(=O)N7)c(OC)n6)c5Cl)cccc43)nc2OC)C1 [B-108] | 696 | –
21 | COc1nc(-c2cccc(-c3cccc4c3CC[C@@H]4Oc3nc(OC)c(CN4CCC[C@@H]4C(=O)O)cc3Cl)c2Cl)ccc1CNC[C@@H]1CCC(=O)N1 [B-16] | 24.5 | –
22 | COc1nc(-c2cccc(-c3cccc4c3CC[C@@H]4Oc3nc(OCc4cncc(C#N)c4)c(CN4CC[C@H](C(=O)O)C4)cc3Cl)c2Cl)ccc1CNC[C@@H]1CCC(=O)N1 [B-65] | 15.3 | –
23 | COc1nc(-c2cccc(-c3cccc4c3CC[C@@H]4Oc3nc(OC)c(CNC4(C(=O)O)CCOCC4)cc3Cl)c2Cl)ccc1CNC[C@@H]1CCC(=O)N1 [B-15] | 9.55 | –
24 | CCOc1nc(O[C@H]2CCc3c(-c4cccc(-c5ccc(CNC[C@@H]6CCC(=O)N6)c(OC)n5)c4Cl)cccc32)c(Cl)cc1CN1CC[C@H](C(=O)O)C1 [B-47] | 27.4 | –
25 | COc1nc(-c2cccc(-c3cccc4c3CC[C@@H]4Oc3nc(OC)c(CN4CC[C@H](C(=O)NS(C)(=O)=O)C4)cc3Cl)c2Cl)ccc1CNC[C@@H]1CCC(=O)N1 [B-84] | 37.3 | –
26 | COc1nc(-c2cccc(-c3cccc4c3CC[C@@H]4Oc3nc(OC)c(CN4CC(C(=O)NS(C)(=O)=O)C4)cc3Cl)c2Cl)ccc1CN1CC(C)(O)C1 [B-75] | 93.8 | –
27 | COc1nc(-c2cccc(-c3cccc4c3CC[C@@H]4Oc3nc(OC)c(CN4CC[C@@H](C(=O)NS(C)(=O)=O)C4)cc3Cl)c2Cl)ccc1CN1CC(C)(O)C1 [B-76] | 83.2 | –
28 | COc1nc(-c2cccc(-c3cccc4c3CC[C@@H]4Oc3nc(OC)c(CN[C@@H]4CCC[C@@H]4C(=O)O)cc3Cl)c2Cl)ccc1CNC[C@@H]1CCC(=O)N1 [B-53] | 31.1 | –
29 | COc1nc(-c2cccc(-c3cccc4c3CC[C@@H]4Oc3nc(OC)c(CNC4(C(=O)O)CC4)cc3Cl)c2Cl)ccc1CNC[C@@H]1CCC(=O)N1 [B-54] | 10.2 | –
30 | CCOc1nc(O[C@H]2CCc3c(-c4cccc(-c5ccc(CNC[C@@H]6CCC(=O)N6)c(OC)n5)c4Cl)cccc32)c(Cl)cc1CN1CC2(C(=O)O)CCC1CC2 [B-46] | 14.7 | –
31 | COc1nc(-c2cccc(-c3cccc4c3CC[C@@H]4Oc3nc(OC)c(CN4CCC[C@@H](C(=O)NS(C)(=O)=O)C4)cc3Cl)c2Cl)ccc1CNC[C@@H]1CCC(=O)N1 [B-109] | 40.9 | –
32 | COc1nc(-c2cccc(-c3cccc4c3CC[C@@H]4Oc3nc(OC)c(CN4CC[C@@H](C(=O)NS(C)(=O)=O)C4)cc3Cl)c2Cl)ccc1CNC[C@@H]1CCC(=O)N1 [B-113] | 29.9 | –
33 | COc1nc(-c2cccc(-c3cccc4c3CC[C@@H]4Oc3nc(OC)c(CN4CCC[C@@]4(C)C(=O)O)cc3Cl)c2Cl)ccc1CNC[C@@H]1CCC(=O)N1 [B-17] | 4.29 | –
34 | CCOC(=O)C1CN(Cc2cc(Cl)c(O[C@H]3CCc4c(-c5cccc(-c6ccc(CNC[C@@H]7CCC(=O)N7)c(OC)n6)c5Cl)cccc43)nc2OC)C1 [B-105] | 783 | –
35 | COc1nc(-c2cccc(-c3cccc4c3CC[C@@H]4Nc3nc(OC)c(CNC4(C(=O)O)CC4)cc3C(F)(F)F)c2Cl)ccc1CN1CC2(CCC(=O)N2)C1 [A-23] | – | IC50 (PD-1/PD-L1; [3]): ≤ 0.064 nM
36 | COc1nc(O[C@H]2CCc3c(-c4cccc(-c5cnc([C@@H](C)NC[C@H]6CCC(=O)N6)c(OC)n5)c4Cl)cccc32)c(Cl)cc1CN1CC[C@@H](C(=O)O)C1 [B-79] | 70.8 | –
37 | COc1nc(-c2cccc(-c3cccc4c3CC[C@@H]4Oc3nc(OCc4cncc(Cl)c4)c(CNC4(C(=O)O)CC4)cc3C(F)(F)F)c2Cl)ccc1CNC[C@@H]1CCC(=O)N1 [B-29] | 4.08 | –
